In US20220274979A1 (Bayer Pharma Aktiengesellschaft, priority 2018, published 2022):

Target: T1, hSOS1 (hSOS1-mediated loading of hK-RasG12C-GDP) (Homo sapiens, UniProt Q07889)
T1 construct: hSOS1 (amino acid 564-1049); made in house; host or cells: E. coli BL21 (DE3)
T1 sequence (Q07889 with tags, fused parts or gaps): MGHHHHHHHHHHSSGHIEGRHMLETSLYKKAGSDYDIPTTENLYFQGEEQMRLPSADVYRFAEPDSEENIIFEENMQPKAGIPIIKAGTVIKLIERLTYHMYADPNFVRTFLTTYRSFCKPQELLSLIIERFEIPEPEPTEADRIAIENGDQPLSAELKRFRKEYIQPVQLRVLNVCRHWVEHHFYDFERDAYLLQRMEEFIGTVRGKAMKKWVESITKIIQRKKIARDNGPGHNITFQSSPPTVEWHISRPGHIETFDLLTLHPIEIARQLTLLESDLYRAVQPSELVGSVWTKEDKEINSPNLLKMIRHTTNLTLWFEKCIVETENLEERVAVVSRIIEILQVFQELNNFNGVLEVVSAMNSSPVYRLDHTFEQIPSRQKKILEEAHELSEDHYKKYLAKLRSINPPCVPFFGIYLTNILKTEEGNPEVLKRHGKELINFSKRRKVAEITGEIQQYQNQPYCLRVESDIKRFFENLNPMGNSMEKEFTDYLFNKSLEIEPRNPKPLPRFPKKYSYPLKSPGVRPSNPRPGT
Assay: Biochemical Assay 3: hK-RasG12C activation assay by hSOS1 (loading with fluorescent GTP analog, HTRF)
Details: no GTP

Row | SMILES | IC50 [nM]
1 | Cc1nc(NC(C)c2ccc(-c3ccccc3CN(C)C)s2)c2cc(NCCn3ccnc3)ncc2n1 (stereo not drawn) [Example 56, N4-[1-(5-{2-[(dimethylamino)methyl]phenyl}-2-thienyl)ethyl]-N6-[2-(1H-imidazol-1-yl)ethyl]-2-methylpyrido[3,4-d]pyrimidine-4,6-diamine] | 89.5
2 | COc1cc2c(N[C@H](C)c3cccc(Br)c3)nc(C)nc2cn1 [Example 57, N-[(1R)-1-(3-bromophenyl)ethyl]-6-methoxy-2-methylpyrido[3,4-d]pyrimidin-4-amine] | 1780
3 | Cc1nc(NC(C)c2ccc(-c3ccccc3CN(C)C)s2)c2cc(Oc3cccc(C4=NCCN4C)c3)ncc2n1 (stereo not drawn) [Example 58, N-[1-(5-{2-[(dimethylamino)methyl]phenyl}thiophen-2-yl)ethyl]-2-methyl-6-[3-(1-methyl-4,5-dihydro-1H-imidazol-2-yl)phenoxy]pyrido[3,4-d]pyrimidin-4-amine] | 155
4 | CSc1cc2c(NC(C)c3ccc(-c4ccccc4CN(C)C)s3)nc(C)nc2cn1 (stereo not drawn) [Example 59, N-[1-(5-{2-[(dimethylamino)methyl]phenyl}thiophen-2-yl)ethyl]-2-methyl-6-(methylsulfanyl)pyrido[3,4-d]pyrimidin-4-amine] | 67.7
5 | CC(=O)NCCOc1cc2c(N[C@H](C)c3cccc(Br)c3)nc(C)nc2cn1 [Example 62, N-{2-[(4-{[(1R)-1-(3-bromophenyl)ethyl]amino}-2-methylpyrido[3,4-d]pyrimidin-6-yl)oxy]ethyl}acetamide] | 735
6 | CCOc1cc2c(NC(C)c3ccc(-c4ccccc4CN(C)C)s3)nc(C)nc2cn1 (stereo not drawn) [Example 63, N-[1-(5-{2-[(dimethylamino)methyl]phenyl}thiophen-2-yl)ethyl]-6-ethoxy-2-methylpyrido[3,4-d]pyrimidin-4-amine] | 61.1
7 | COc1cc2c(NC(C)c3ccc(-c4ccccc4CN(C)C)s3)nc(C)nc2cn1 (stereo not drawn) [Example 64, N-[1-(5-{2-[(dimethylamino)methyl]phenyl}thiophen-2-yl)ethyl]-6-methoxy-2-methylpyrido[3,4-d]pyrimidin-4-amine] | 80.3
8 | Cc1nc(NC(C)c2ccc(-c3ccccc3CN(C)C)s2)c2cc(OC3CCS(=O)(=O)CC3)ncc2n1 (stereo not drawn) [Example 67, N-[1-(5-{2-[(dimethylamino)methyl]phenyl}thiophen-2-yl)ethyl]-6-[(1,1-dioxidotetrahydro-2H-thiopyran-4-yl)oxy]-2-methylpyrido[3,4-d]pyrimidin-4-amine] | 63.3
9 | Cc1nc(NC(C)c2ccc(-c3ccccc3CO)s2)c2cc(F)ncc2n1 (stereo not drawn) [Example 68, [2-(5-{1-[(6-fluoro-2-methylpyrido[3,4-d]pyrimidin-4-yl)amino]ethyl}thiophen-2-yl)phenyl]methanol] | > 20000
10 | Cc1nc(N[C@H](C)c2cccc(Br)c2)c2cc(OCCCN(C)C)ncc2n1 [Example 70, N-[(1R)-1-(3-bromophenyl)ethyl]-6-[3-(dimethylamino)propoxy]-2-methylpyrido[3,4-d]pyrimidin-4-amine] | 1340
11 | Cc1nc(NC(C)c2ccc(-c3ccccc3CN(C)C)s2)c2cc(N3CCC3)ncc2n1 (stereo not drawn) [Example 71, 6-(azetidin-1-yl)-N-[1-(5-{2-[(dimethylamino)methyl]phenyl}thiophen-2-yl)ethyl]-2-methylpyrido[3,4-d]pyrimidin-4-amine] | 82.5
12 | Cc1nc(NC(C)c2ccc(-c3ccccc3CN(C)C)s2)c2cc(OCCCN(C)C)ncc2n1 (stereo not drawn) [Example 72, N-[1-(5-{2-[(dimethylamino)methyl]phenyl}thiophen-2-yl)ethyl]-6-[3-(dimethylamino)propoxy]-2-methylpyrido[3,4-d]pyrimidin-4-amine] | 49
13 | Cc1nc(NC(C)c2ccc(-c3ccccc3CN(C)C)s2)c2cc(OCC3CC3)ncc2n1 (stereo not drawn) [Example 73, 6-(cyclopropylmethoxy)-N-[1-(5-{2-[(dimethylamino)methyl]phenyl}thiophen-2-yl)ethyl]-2-methylpyrido[3,4-d]pyrimidin-4-amine] | 138
14 | Cc1nc(NC(C)c2ccc(-c3ccccc3CN(C)C)s2)c2cc(OCCO)ncc2n1 (stereo not drawn) [Example 74, 2-[(4-{[1-(5-{2-[(dimethylamino)methyl]phenyl}thiophen-2-yl)ethyl]amino}-2-methylpyrido[3,4-d]pyrimidin-6-yl)oxy]ethanol] | 107
15 | Cc1nc(N[C@H](C)c2cccc(Br)c2)c2cc(OCC3CC3)ncc2n1 [Example 75, N-[(1R)-1-(3-bromophenyl)ethyl]-6-(cyclopropylmethoxy)-2-methylpyrido[3,4-d]pyrimidin-4-amine] | 15200
16 | Cc1nc(NC(C)c2ccc(-c3ccccc3CN(C)C)s2)c2cc(OCCCO)ncc2n1 (stereo not drawn) [Example 76, 3-[(4-{[1-(5-{2-[(dimethylamino)methyl]phenyl}thiophen-2-yl)ethyl]amino}-2-methylpyrido[3,4-d]pyrimidin-6-yl)oxy]propan-1-ol] | 73
17 | Cc1nc(NC(C)c2ccc(-c3ccccc3CN(C)C)s2)c2cc(OC3CCS(=N)(=O)CC3)ncc2n1 (stereo not drawn) [Example 77, N-[1-(5-{2-[(dimethylamino)methyl]phenyl}-2-thienyl)ethyl]-6-[(1-imino-1-oxidohexahydro-1lambda4-thiopyran-4-yl)oxy]-2-methylpyrido[3,4-d]pyrimidin-4-amine] | 84.3
18 | Cc1nc(N[C@H](C)c2cccc(Br)c2)c2cc(OCCN(C)C)ncc2n1 [Example 78, N-[(1R)-1-(3-bromophenyl)ethyl]-6-[2-(dimethylamino)ethoxy]-2-methylpyrido[3,4-d]pyrimidin-4-amine] | 2270
19 | Cc1nc(N[C@H](C)c2cccc(Br)c2)c2cc(NCCS(C)(=O)=O)ncc2n1 [Example 83] | 1090
20 | Cc1nc(N[C@H](C)c2cccc(Br)c2)c2cc(NCCn3ccnc3)ncc2n1 [Example 84, N4-[(1R)-1-(3-bromophenyl)ethyl]-N6-[2-(1H-imidazol-1-yl)ethyl]-2-methylpyrido[3,4-d]pyrimidine-4,6-diamine] | 1210
21 | Cc1nc(NC(C)c2ccc(-c3ccccc3CN(C)C)s2)c2cc(NCC3CCNC(=O)C3)ncc2n1 (stereo not drawn) [Example 86, 4-{[(4-{[1-(5-{2-[(dimethylamino)methyl]phenyl}thiophen-2-yl)ethyl]amino}-2-methylpyrido[3,4-d]pyrimidin-6-yl)amino]methyl}piperidin-2-one] | 144
22 | Cc1nc(NC(C)c2ccc(-c3ccccc3CN(C)C)s2)c2cc(N3CC(NC(=O)CCCn4c(-c5ccccn5)nc(C)c4C)C3)ncc2n1 (stereo not drawn) [Example 87, N-[1-(4-{[1-(5-{2-[(dimethylamino)methyl]phenyl}thiophen-2-yl)ethyl]amino}-2-methylpyrido[3,4-d]pyrimidin-6-yl)azetidin-3-yl]-4-[4,5-dimethyl-2-(pyridin-2-yl)-1H-imidazol-1-yl]butanamide] | 228
23 | Cc1nc(NC(C)c2ccc(-c3ccccc3CN(C)C)s2)c2cc(N3CC(NC(=O)c4ccccc4)C3)ncc2n1 (stereo not drawn) [Example 88, N-[1-(4-{[1-(5-{2-[(dimethylamino)methyl]phenyl}thiophen-2-yl)ethyl]amino}-2-methylpyrido[3,4-d]pyrimidin-6-yl)azetidin-3-yl]benzamide] | 173
24 | Cc1nc(NC(C)c2ccc(-c3ccccc3CN(C)C)s2)c2cc(N3CC(NC(=O)Cc4ccccc4)C3)ncc2n1 (stereo not drawn) [Example 89, N-[1-(4-{[1-(5-{2-[(dimethylamino)methyl]phenyl}thiophen-2-yl)ethyl]amino}-2-methylpyrido[3,4-d]pyrimidin-6-yl)azetidin-3-yl]-2-phenylacetamide] | 132
